Data from patent US8735406B2, “8-oxodihydropurine derivative” (Dainippon Sumitomo Pharma Co., Ltd., priority 2009, dated 2014).
Like-named read-outs stand apart in the source and are kept apart here.

Target: T1, FAAH (Rattus norvegicus, UniProt P97612)
T1 construct: Preparation of Rat Brain Membranes Preparations (FAAH Enzyme Solution); from tissue; host or cells: rat cerebrum (brain membrane preparation)
T1 sequence (P97612 1-579): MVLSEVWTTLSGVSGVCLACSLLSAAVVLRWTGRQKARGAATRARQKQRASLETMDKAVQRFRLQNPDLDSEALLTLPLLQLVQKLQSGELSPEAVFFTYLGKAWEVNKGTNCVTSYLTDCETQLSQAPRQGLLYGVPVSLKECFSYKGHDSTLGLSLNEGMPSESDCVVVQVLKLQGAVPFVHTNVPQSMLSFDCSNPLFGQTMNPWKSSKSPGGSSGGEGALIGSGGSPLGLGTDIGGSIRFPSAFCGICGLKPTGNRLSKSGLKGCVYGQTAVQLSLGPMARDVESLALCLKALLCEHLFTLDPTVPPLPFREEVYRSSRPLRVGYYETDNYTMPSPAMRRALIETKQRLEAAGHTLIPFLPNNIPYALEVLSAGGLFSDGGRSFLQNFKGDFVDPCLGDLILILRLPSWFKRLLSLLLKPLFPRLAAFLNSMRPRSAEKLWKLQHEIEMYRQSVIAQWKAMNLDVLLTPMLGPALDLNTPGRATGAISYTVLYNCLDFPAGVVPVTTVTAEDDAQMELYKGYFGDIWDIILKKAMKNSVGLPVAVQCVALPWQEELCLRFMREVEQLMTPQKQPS
Assay: Determination of FAAH inhibitory activity in rat (rat brain membrane preparations, [3H]-anandamide hydrolysis)
Type: biochemical
Conditions: rat brain membrane preparations; for IC50: read-out: FAAH Inhibition IC50
Summary of the method: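 Compounds tested from 0.1 nM to 1 μM to derive IC50 against FAAH hydrolysis in rat brain membrane preparations (100 μg/mL). A 10-min 37 °C preincubation was followed by 10 min with [3H]-anandamide (2 nM) mixed with 2 μM unlabelled anandamide. Radioactive ethanolamine was extracted into the water/methanol layer and counted.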

[1] = 100 nM test substance, read-out: FAAH Inhibition, Inhibition Rate at 100 nM
[2] = at 100 nM, read-out: FAAH Inhibition Inhibition Rate at 100 nM

inhibition at 0.1 µM [1] [%] | IC50 (test substance 0.1 nM to 1 μM) [nM] | FAAH Inhibition, Inhibition Rate at 100 nM (100 nM test substance, 0.1 µM) [%] | inhibition at 0.1 µM [2] [%] | IC50 [nM] | SMILES
102 | 10 | – | – | – | Cc1cc(C)cc(CCc2ncc3c(n2)n(C(=O)N(C)C)c(=O)n3C)c1 [compound 514]
100 | 10 | – | – | – | CCc1ccccc1CCc1ncc2c(n1)n(C(=O)N(C)C)c(=O)n2C [compound 515]
100 | 10 | – | – | – | CCc1cccc(CCc2ncc3c(n2)n(C(=O)N(C)C)c(=O)n3C)c1 [compound 516]
98 | 10 | – | – | – | CN(C)C(=O)n1c(=O)n(C)c2cnc(CCc3cccc(C4CC4)c3)nc21 [compound 517]
107 | 9 | – | – | – | CCCc1cccc(CCc2ncc3c(n2)n(C(=O)N(C)C)c(=O)n3C)c1 [compound 518]
84 | 6 | – | – | – | CN(C)C(=O)n1c(=O)n(C)c2cnc(CCc3cccc(OCC4CC4)c3)nc21 [compound 519]
96 | 4 | – | – | – | CN(C)C(=O)n1c(=O)n(C)c2cnc(CCc3cccc(Cl)c3)nc21 [compound 520]
85 | 13 | – | – | – | CN(C)C(=O)n1c(=O)n(C)c2cnc(CCc3ccc(C4CC4)cc3)nc21 [compound 521]
80 | 94 | – | – | – | CN(C)C(=O)n1c(=O)n(C)c2cnc(CCc3ccc(C4CC4)c(F)c3)nc21 [compound 524]
95 | 28 | – | – | – | CN(C)C(=O)n1c(=O)n(C)c2cnc(CCc3ccc(F)c(C4CC4)c3)nc21 [compound 527]
– | 55 | 72 | – | – | CN(C)C(=O)n1c(=O)n(C)c2cnc(CCc3cc(F)cc(F)c3)nc21 [compound 528]
80 | 30 | – | – | – | CN(C)C(=O)n1c(=O)n(C)c2cnc(CCc3ccc(OC4CCC4)cc3)nc21 [compound 531]
96 | 13 | – | – | – | CN(C)C(=O)n1c(=O)n(C)c2cnc(CCc3ccc(OC4CCCC4)cc3)nc21 [compound 532]
47 | 131 | – | – | – | CCOc1cccc(CCc2ncc3c(n2)n(C(=O)N(C)C)c(=O)n3C)c1 [compound 534]
61 | 75 | – | – | – | CCCOc1cccc(CCc2ncc3c(n2)n(C(=O)N(C)C)c(=O)n3C)c1 [compound 535]
41 | 131 | – | – | – | CC(C)Oc1cccc(CCc2ncc3c(n2)n(C(=O)N(C)C)c(=O)n3C)c1 [compound 536]
41 | 153 | – | – | – | CN(C)C(=O)n1c(=O)n(C)c2cnc(CCc3cccc(C(F)F)c3)nc21 [compound 537]
92 | 17 | – | – | – | CN(C)C(=O)n1c(=O)n(C)c2cnc(CCc3cccc(C(F)(F)F)c3)nc21 [compound 539]
100 | 10 | – | – | – | CN(C)C(=O)n1c(=O)n(C)c2cnc(CCc3ccccc3C(F)(F)F)nc21 [compound 542]
70 | 67 | – | – | – | COc1cccc(CCc2ncc3c(n2)n(C(=O)N(C)C)c(=O)n3C)c1 [compound 543]
122 | 11 | – | – | – | COc1ccc(CCc2ncc3c(n2)n(C(=O)N(C)C)c(=O)n3C)cc1 [compound 544]
86 | 28 | – | – | – | CN(C)C(=O)n1c(=O)n(C)c2cnc(CCc3ccccc3C(F)F)nc21 [compound 546]
79 | 27 | – | – | – | CN(C)C(=O)n1c(=O)n(C)c2cnc(CCc3cccc(OC(F)F)c3)nc21 [compound 548]
77 | 22 | – | – | – | CN(C)C(=O)n1c(=O)n(C)c2cnc(CCc3ccccc3OC(F)(F)F)nc21 [compound 549]
87 | 20 | – | – | – | CN(C)C(=O)n1c(=O)n(C)c2cnc(CCc3cccc(F)c3F)nc21 [compound 550]

inhibition at 0.1 µM [1] [%] | IC50 (test substance 0.1 nM to 1 μM) [nM] | FAAH Inhibition, Inhibition Rate at 100 nM (100 nM test substance, 0.1 µM) [%] | inhibition at 0.1 µM [2] [%] | IC50 [nM] | SMILES
40 | 104 | – | – | – | CN(C)C(=O)n1c(=O)n(C)c2cnc(CCc3c(F)cccc3F)nc21 [compound 551]
43 | – | – | – | – | CCN(C)C(=O)n1c(=O)n(C)c2cnc(CCc3ccccc3F)nc21 [compound 554]
48 | 106 | – | – | – | CCN(C)C(=O)n1c(=O)n(C)c2cnc(CCc3ccc(F)cc3)nc21 [compound 555]
78 | 44 | – | – | – | CCN(C)C(=O)n1c(=O)n(C)c2cnc(CCc3cccc(C)c3)nc21 [compound 556]
66 | 67 | – | – | – | CCN(C)C(=O)n1c(=O)n(C)c2cnc(CCc3cccc(OC)c3)nc21 [compound 557]
83 | 23 | – | – | – | CCN(C)C(=O)n1c(=O)n(C)c2cnc(CCc3cccc(OC(F)(F)F)c3)nc21 [compound 558]
97 | 10 | – | – | – | Cc1ccc(CCc2ncc3c(n2)n(C(=O)N2CCC2)c(=O)n3C)cc1 [compound 559]
91 | 14 | – | – | – | Cc1cccc(CCc2ncc3c(n2)n(C(=O)N2CCC2)c(=O)n3C)c1 [compound 560]
99 | 10 | – | – | – | CCc1ccc(CCc2ncc3c(n2)n(C(=O)N2CCC2)c(=O)n3C)cc1 [compound 561]
101 | 10 | – | – | – | CCCc1ccc(CCc2ncc3c(n2)n(C(=O)N2CCC2)c(=O)n3C)cc1 [compound 562]
100 | 7 | – | – | – | CC(C)c1ccc(CCc2ncc3c(n2)n(C(=O)N2CCC2)c(=O)n3C)cc1 [compound 563]
98 | 9 | – | – | – | CCCOc1ccc(CCc2ncc3c(n2)n(C(=O)N2CCC2)c(=O)n3C)cc1 [compound 564]
99 | 10 | – | – | – | Cc1ccc(CCc2ncc3c(n2)n(C(=O)N2CCC2)c(=O)n3C)cc1C [compound 565]
96 | 10 | – | – | – | Cc1cc(C)c(CCc2ncc3c(n2)n(C(=O)N2CCC2)c(=O)n3C)c(C)c1 [compound 566]
83 | 99 | – | – | – | Cn1c(=O)n(C(=O)N2CCC2)c2nc(CCc3cccc(C4CC4)c3)ncc21 [compound 572]
99 | 16 | – | – | – | Cn1c(=O)n(C(=O)N2CCC2)c2nc(CCc3ccc(C4CC4)cc3)ncc21 [compound 573]
102 | 10 | – | – | – | Cn1c(=O)n(C(=O)N2CCC2)c2nc(CCc3ccc(Cl)cc3)ncc21 [compound 575]
57 | 75 | – | – | – | Cc1ccccc1CCc1ncc2c(n1)n(C(=O)N1CCC1)c(=O)n2C [compound 591]
84 | 21 | – | – | – | Cn1c(=O)n(C(=O)N2CCC2)c2nc(CCc3cccc(C(F)F)c3)ncc21 [compound 594]
92 | 10 | – | – | – | Cn1c(=O)n(C(=O)N2CCC2)c2nc(CCc3ccc(C(F)(F)F)cc3)ncc21 [compound 597]
– | – | – | 92 | 15 | CCOc1cccc(CCc2ncc3c(n2)n(C(=O)N2CCC2)c(=O)n3C)c1 [compound 604]
– | – | – | 108 | 4 | Cn1c(=O)n(C(=O)N2CCC2)c2nc(CCc3ccc(OC(F)(F)F)cc3)ncc21 [compound 609]
– | – | – | 78 | 10 | Cn1c(=O)n(C(=O)N2CC(c3ccc(F)cc3)C2)c2cnc(C3CC3)nc21 [compound 621]
– | – | – | 116 | 1 | Cn1c(=O)n(C(=O)N2CC(c3cccc(F)c3)C2)c2cnc(C3CC3)nc21 [compound 622]
